One test relates to cisplatin-induced emesis. Put plainly: cisplatin-induced retching and vomiting in the ferret. It is filed as in vivo, ferret (Mustela putario furo). Conditions: 5 mg/kg and 10 mg/kg i.p., 6 h observation. The protocol:
The suitability of a compound of the invention to reduce retching and vomiting therapeutically is assessed in an accepted animal model of cytotoxin-induced emesis. Specifically, the experiments described herein are used to investigate the effect of a compound to reduce cisplatin-induced retching and/or vomiting in the ferret. Ondansetron is used as a positive control in the model, in view of its known antiemetic activity (Rudd and Naylor, Eur. J. Pharmacol., 322: 79-82 (1997)).
Adult male ferrets (Mustela putario furo) weighing 1200-1880g are purchased from Triple F Farns (Sayre, Pa.) and housed in individual cages at standardized conditions (12:12 h light/dark cycle and 21-23° C.). […]
Experiments are performed essentially as follows. […] Following administration of the cisplatin and either the test compound, ondansetron (control) or vehicle alone, the occurrence of retching and vomiting is monitored for a period of 6 hours. […] The latency of the retching or vomiting response and the number of episodes are recorded for each animal and are summarized for each experimental group (Wright et al., Infect. Immun., 68(4): 2386-9 (2000)). […]
Cisplatin is expected to induce an emetic response in 100% of the animals receiving vehicle alone. […] The mean latency of the first response post-cicplatin administration is also determined.

Test [1] deals with T1, norepinephrine transporter (NET), human recombinant from CHO cells (Homo sapiens, UniProt P23975).
T1 construct: expressed in transfected cells; host or cells: CHO
Kind of test: norepinephrine transporter (NET) binding assay ([3H]nisoxetine). The protocol:
(§1) The binding of MCI 225 QUAT to various receptors/transporters was compared to that of the non-quaternized parent compound, MCI-225. Binding assays were performed essentially according to procedures as follows.
The norepinephrine transporter (NET) assay was performed essentially as described in Raisman et al. (1982) Eur. J. Pharmacol. 78:345-351 (minor modifications); and Raisman and Briley (1981) Eur. J. Pharmacol. 72:423. Briefly, human recombinant receptors were from CHO cells. Tritiated radioligand (nisoxetine) was used. % specific binding was determined as a function of log [compound]. Desipramine (DMI) was used as nonspecific determinant, reference compound and positive control.

The target of test [2] is T2, serotonin transporter (SERT), human platelet membranes (Homo sapiens, UniProt P31645).
T2 construct: Briefly, human recombinant receptors were from human platelet membranes; from tissue; host or cells: human platelet membranes
Kind of test: serotonin transporter (SERT) binding assay ([3H]N-methyl citalopram). The protocol:
Binding assays were performed essentially according to procedures as follows.
The serotonin transporter (SERT) assay was performed essentially as described in D'Armato et al. (1987) J. Pharmacol. & Exp. Ther. 242:364-371 (with modification); and Brown et al. (1986) Eur. J. Pharmacol. 123:161-165. Briefly, human recombinant receptors were from human platelet membranes. Tritiated radioligand (N-methyl citalopram) was used. % specific binding was determined as a function of log [compound]. Imipramine was used as nonspecific determinant, reference compound and positive control.

Test [3] deals with T3, 5-HT3 human recombinant receptors from HEK-293 cells (Homo sapiens, UniProt P46098).
T3 construct: expressed in transfected cells; host or cells: HEK-293
T3 sequence (P46098 24-478): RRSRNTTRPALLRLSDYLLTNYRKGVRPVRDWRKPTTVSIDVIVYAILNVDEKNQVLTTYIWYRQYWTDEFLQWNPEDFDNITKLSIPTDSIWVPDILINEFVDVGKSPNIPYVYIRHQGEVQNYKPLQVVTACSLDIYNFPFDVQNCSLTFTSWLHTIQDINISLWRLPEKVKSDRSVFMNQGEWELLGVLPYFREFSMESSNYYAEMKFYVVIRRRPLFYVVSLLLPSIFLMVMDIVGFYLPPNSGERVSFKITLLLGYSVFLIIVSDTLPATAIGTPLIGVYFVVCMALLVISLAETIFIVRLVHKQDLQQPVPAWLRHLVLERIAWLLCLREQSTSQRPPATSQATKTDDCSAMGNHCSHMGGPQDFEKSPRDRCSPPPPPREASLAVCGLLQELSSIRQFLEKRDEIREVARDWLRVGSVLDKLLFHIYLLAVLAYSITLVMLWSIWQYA
Put plainly: 5-HT3 human recombinant binding assay ([3H]GR 65630). The procedure:
as §1
The 5-HT3 human recombinant binding assay was performed essentially as described in Lummis et al. (1990) Eur. J. Pharmacol. 189:223-27; Hoyer et al. (1988) Mol. Pharmacol. 33:303; and Tyers et al. (1991) Therapie 46:431-435. Briefly, human recombinant receptors were from HEK-293 cells. Tritiated radioligand (GR 65630) was used. % specific binding was determined as a function of log [compound]. MDL 72222 (1 alpha H, 3 alpha, 5 alpha H-tropan-3-yl-3,5-dichlorobenzoate) was used as nonspecific determinant, reference compound and positive control.

SMILES strings stand for the structures.

T2 sequence (P31645 whole entry): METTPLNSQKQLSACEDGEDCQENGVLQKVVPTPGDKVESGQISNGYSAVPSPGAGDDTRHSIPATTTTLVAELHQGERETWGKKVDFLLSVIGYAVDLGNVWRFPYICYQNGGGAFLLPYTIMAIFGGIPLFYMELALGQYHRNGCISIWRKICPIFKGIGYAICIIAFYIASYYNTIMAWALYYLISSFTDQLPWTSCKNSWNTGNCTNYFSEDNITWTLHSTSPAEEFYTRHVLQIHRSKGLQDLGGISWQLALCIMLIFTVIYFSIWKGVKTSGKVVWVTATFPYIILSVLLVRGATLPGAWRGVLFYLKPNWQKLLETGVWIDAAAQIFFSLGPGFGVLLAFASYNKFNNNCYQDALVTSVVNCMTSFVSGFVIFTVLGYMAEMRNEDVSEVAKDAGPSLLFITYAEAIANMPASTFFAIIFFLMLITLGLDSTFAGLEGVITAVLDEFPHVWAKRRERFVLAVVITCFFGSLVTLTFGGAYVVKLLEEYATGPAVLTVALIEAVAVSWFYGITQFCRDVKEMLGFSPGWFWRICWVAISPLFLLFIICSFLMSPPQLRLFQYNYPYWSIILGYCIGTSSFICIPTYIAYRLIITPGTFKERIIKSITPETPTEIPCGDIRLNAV
T1 sequence (P23975 whole entry): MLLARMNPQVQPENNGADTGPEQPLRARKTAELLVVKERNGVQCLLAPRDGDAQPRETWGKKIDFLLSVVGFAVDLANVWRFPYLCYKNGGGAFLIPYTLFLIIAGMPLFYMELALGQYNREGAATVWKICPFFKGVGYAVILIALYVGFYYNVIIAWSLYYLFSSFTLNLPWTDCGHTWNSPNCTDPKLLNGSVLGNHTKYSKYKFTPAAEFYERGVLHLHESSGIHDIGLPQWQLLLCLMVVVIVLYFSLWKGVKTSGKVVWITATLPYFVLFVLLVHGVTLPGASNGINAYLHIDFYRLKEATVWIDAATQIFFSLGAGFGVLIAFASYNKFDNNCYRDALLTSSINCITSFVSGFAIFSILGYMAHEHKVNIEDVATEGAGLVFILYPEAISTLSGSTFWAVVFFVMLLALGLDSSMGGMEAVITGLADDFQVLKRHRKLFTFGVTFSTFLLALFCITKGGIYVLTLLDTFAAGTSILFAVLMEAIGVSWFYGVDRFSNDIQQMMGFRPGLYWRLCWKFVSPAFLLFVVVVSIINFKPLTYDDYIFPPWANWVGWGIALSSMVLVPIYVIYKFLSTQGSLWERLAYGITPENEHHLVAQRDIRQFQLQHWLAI

Turning to `Cc1nccn1CC1CCc2c(c3ccccc3n2C)C1=O` (centres unmarked) [Ondansetron, ondansetron], in the test with cisplatin-induced emesis, the “latency of the first emetic response induced by cisplatin” value is reported as “increase the latency” and the “number of emetic events induced by cisplatin” value was “reduce the number of emetic events”.
As for `Cc1cc2c(-c3ccccc3F)nc(N3CCNCC3)nc2s1` [compound 225, 4-(2-fluoro-phenyl)-6-methyl-2-piperazin-1-yl-thieno[2,3-d]pyrimidine], the results for the “NET (hr) % specific binding” value in test [1] (Conc. 1.00E−06), in test [1] (Conc. 1.00E−08) and in test [1] (Conc. 1.00E−10) were 104%, 72% and 17%, respectively. Further, the “SERT (h) % specific binding” value in test [2] (Conc. 1.00E−06) is recorded as 94%; in test [2] (Conc. 1.00E−08) it was 10%; in test [2] (Conc. 1.00E−10), 1%. The “5-HT3 (hr) % specific binding” value in test [3] (Conc. 1.00E−06) was found to be 100%; in test [3] (Conc. 1.00E−08), 22%; in test [3] (Conc. 1.00E−10), 0%.

These data come from patent US20060293309A1, “Method of treating disorders and conditions using peripherally-restricted antagonists and inhibitors” (Dynogen Pharmaceuticals, Inc., priority 2005, published 2006).
